Laboratory results reported in ChEMBL document CHEMBL1126109 (J Med Chem, 1992).

Key:
Assay type in all cases: protein-complex assay
Glutamate NMDA receptor [1] = assay: Compound was evaluated for the inhibition of [3H]-CGS-19,755 binding at N-methyl-D-aspartate glutamate receptor
Glutamate NMDA receptor [2] = assay: Compound was evaluated for the inhibition of [3H]norepinephrine binding at N-methyl-D-aspartate glutamate receptor
Glutamate NMDA receptor [3] = assay: Compound was evaluated for the inhibition of [3H]MK-801 binding at N-methyl-D-aspartate glutamate receptor

IC50 (Glutamate NMDA receptor [1])	EC50 (Glutamate NMDA receptor [2])	EC50 (Glutamate NMDA receptor [3])	Structure (SMILES)
163 nM	16500 nM	180 nM	N[C@]1(C(=O)O)C[C@@H](C(=O)O)C1
98 nM	2030 nM	70 nM	NC(C(=O)O)c1nnn[nH]1 (racemic)
1640 nM			N[C@@H](CC(=O)O)C(=O)O [ASPARTIC ACID]
4150 nM	75000 nM	6860 nM	CN[C@H](CC(=O)O)C(=O)O [N-METHYL-D-ASPARTIC ACID (NMDA)]
